In patent US8197872B2, “Human milk oligosaccharides to promote growth of beneficial gut bacteria” (The Regents of the University of California, priority 2007, dated 2012):

What was measured:
[1] = tested on: B. longum bv. longum DJO10A; assay: FTICR-MS HMO consumption glycoprofiling of bacterial fermentation; type: cell-based, Bifidobacterium longum bv. longum; details: 45 hrs
Source text: (§1) Bifidobacterium longum bv. infantis ATCC 15697 and B. breve ATCC 15700 were obtained from the American Type Culture Collection (Manassas, Va.), B. longum bv. longum DJO10A was from D. O'Sullivan, University of Minnesota. Cultures were initially propagated in deMan, Rogosa, Sharpe broth (Becton Dickinson, Sparks, Md.) then grown twice on a semi-synthetic MRS medium, devoid of a carbohydrate source (Barrangou et al., Proceedings of the National Academy of Sciences of the United States of America (2003) 100, (15), 8957-8962). This medium was supplemented with 2.0% (w/v) sterile filtered (Millex-GV, 0.22 μm, Millipore, Billerica, Mass.) HMO as the only carbohydrate source. […] Cell growth was measured by assessing optical density at 600 nm with a ND-1000 Spectrophotometer (NanoDrop Technologies, Wilmington, Del.). […]
(§2) All mass spectra were acquired on a HiResESI QFT-hybrid Fourier transform ion cyclotron resonance mass spectrometer with a 9.4 Tesla shielded superconducting magnet (IonSpec Corp., Irvine, Calif.). […] Ion excitation was performed by arbitrary waveform with amplitude of 125.0 V (base-to-peak) and detected by direct broadband mode at a rate of 1 MHz and 512K data points. Each spectrum was recorded with one acquisition scan in the positive ion mode.
(§3) The D/H ratios were calculated using Formula 1 adapted from Xie et al. (Xie et al., Analytical Chemistry (2004) 76, (17), 5186-5197). […]

B. breve ATCC 15700 = assay: as above; type: cell-based, Bifidobacterium breve; details: 45 hrs
Source text: as §1, §2, §3

[2] = tested on: sialidase (EC 3.2.1.18) of B. breve ATCC 15700; assay: Glycosyl hydrolase assay, sialidase in cell-free extract; type: cell-based; details: cells grown with 1% (w/v) of the substance as sole carbon source
Method: (§4) Assayed cells were incubated anaerobically at 37° C. on semi-synthetic MRS medium (Barrangou et al., Proceedings of the National Academy of Sciences of the United States of America (2003) 100: 8957-8962), with 1% (w/v) sterile filtered lactose or HMO as the sole carbon source. Early stationary phase cells were harvested and 200 mg of 0.1 mm diameter glass beads (BioSpec Products, Bartlesville, Okla.) were added to the suspensions which were subjected to two cycles of 45 s at power 6.0 m s^−1 on a FastPrep FP120 cell disruptor (Qbiogene, Morgan Irvine, Calif.). The beads and cell debris were removed by centrifugation. Cell-free extracts were collected and kept temporarily on ice until the start of the enzyme assays. Protein concentrations were determined according to the Bradford method using bovine serum albumin as the standard (Bradford, M. M., Analytical Biochemistry (1976) 72, (1-2), 248-254). Activity of α-L-fucosidase (EC 3.2.1.51) and sialidase (EC 3.2.1.18) were assayed with the fluorogenic substrates, 4-methylumbelliferyl α-L-fucopyranoside and 2′-(4-methylumbelliferyl) α-D-N-acetylneuraminic acid respectively. Fucosidase activity was assayed with a fluorogenic substrate concentration of 1 mM in 0.2 M phosphate-citrate buffer (pH 5.2), while the sialidase assay employed 0.5 mM of substrate mixed in equal volume with 50 μl 0.25 M sodium acetate-acetic acid buffer (pH 4.3). The reaction mixture containing 100 μl of cell-free extract and 100 μL substrate solution were incubated for 1 hr at 37° C. with the reaction stopped with 1.3 mL of 0.17 M glycine-carbonate buffer, pH 9.8. The fluorescence of enzymatically liberated 4-methylumbelliferone was determined in a Bio-Rad VersaFluor fluorometer (Eureka, Calif.) by excitation at 360 nm and emission measured at 460 nm. Serially diluted 4-methylumbelliferone was used to calibrate relative fluorescence units with substrate concentration. The specific activity of the glycosyl hydrolase was expressed as nanomoles of hydrolyzed substrate per milligram of protein per hour. Assays were performed in duplicates and the standard error was reported.

[3] = tested on: sialidase (EC 3.2.1.18) of B. longum DJO10A; assay: as above; type: cell-based; details: cells grown with 1% (w/v) of the substance as sole carbon source
Method: as §4

[4] = tested on: sialidase (EC 3.2.1.18) of B. infantis ATCC 15697; assay: as above; type: cell-based
Method: as §4

[5] = media supplemented with 2.0% (w/v) HMO

Structure (SMILES) | consumption of the overall detectable HMO pool represented by LNT metabolism ([1]; 2.0% (w/v) HMO) [%] | consumption of the HMO species [1, 5] [%] | consumption of the overall detectable HMO pool represented by LNT metabolism (B. breve ATCC 15700; 2.0% (w/v) HMO) [%] | consumption of the HMO species (B. breve ATCC 15700; [5]) [%] | Sialidase [2] [nmol/min/mg protein] | Sialidase [3] [nmol/min/mg protein] | Sialidase ([4]; cells grown with 1% (w/v) of the substance as sole carbon source) [nmol/min/mg protein] | higher sialidase activity of B. longum bv. infantis compared to B. breve ([4]; grown on lactose) [fold] | higher sialidase activity of B. longum bv. infantis compared to B. longum ([4]; grown on lactose) [fold]
CC(=O)N[C@H]1[C@H](O[C@H]2[C@@H](O)[C@@H](CO)O[C@@H](O[C@H]3[C@H](O)[C@@H](O)C(O)O[C@@H]3CO)[C@@H]2O)O[C@H](CO)[C@@H](O)[C@@H]1O[C@@H]1O[C@H](CO)[C@H](O)[C@H](O)[C@H]1O (stereo partly drawn) [lacto-N-tetraose] | 7.3 | 35.2 | 5.1 | 24.4 | – | – | – | – | –
OC[C@H]1O[C@@H](O[C@H]2[C@H](O)[C@@H](O)C(O)O[C@@H]2CO)[C@H](O)[C@@H](O)[C@H]1O (stereo partly drawn) [lactose] | – | – | – | – | 0.32 ± 0.03 | 0.65 ± 0.03 | 10.8 ± 1.0 | 33.7 | 16.6
